“And” between values parts separate entries of the source, which are not always exact repeats. Identical values can stand only once. Counter-ions that a name gives are not always drawn. Like-named read-outs stand apart in the source and are kept apart here.
What was measured:
[1] = tested on: phosphorylation of MYPT1, a substrate for ROCK kinase, in H1299 cells; test: phosphorylation levels of MYPT1 in intact H1299 cells (western blot); assay type: cell-based, human; conditions: for IC50: H1299 human lung cancer cells, read-out: IC50 for inhibition of phosphorylation of MYPT1
[2] = target: ROCK1 (Homo sapiens (Human), UniProt Q13464); test: FRET-based Z'-Lyte kinase assay, ROCK1; assay type: biochemical;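 note: kinase phosphorylates a coumarin/fluorescein-labelled FRET peptide, then a protease cleaves unphosphorylated peptide, progress read as donor to acceptor emission ratio after 400 nm excitation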
Text: (§1) A) In the primary reaction, the Rho kinases phosphorylates a single serine or threonine residue in a synthetic FRET-peptide. This FRET-peptide is doubly labeled with a fluorophore at each end—coumarin (the FRET donor) on one end and fluorescein (the FRET acceptor) on the other—and also contains a single phosphorylation site which either overlaps with or lies adjacent to the proteolytic site. B) In the secondary reaction, a site-specific protease recognizes and cleaves the non-phosphorylated FRET-peptide. Cleavage disrupts FRET between the donor and acceptor fluorophores on the FRET-peptide, whereas uncleaved, phosphorylated FRET-peptides maintain FRET. Kinases phosphorylated FRET-peptides cannot be cleaved by the protease. […] Cleavage disrupts FRET and causes a decrease in the fluorescein fluorescence signal and a strong increase in the coumarin fluorescence signal. Therefore the extension of the phosphprylation can be measured by FRET-signal remaining the protease reaction. The assay uses a ratiometric method, which calculates the ratio of donor emission to acceptor emission (the emission ratio) after excitation of the donor fluorophore at 400 nm, to quantitate reaction progress.
(§2) All compounds were systematically screened against ROCK1 and ROCK2.

[3] = tested on: breast tumors; test: transgenic mouse breast cancer model (rat Her2 under MMTV promoter); assay type: in vivo; conditions: 200 mpk/day, once a day for 14 days; last day of treatment relative to day of initiation
Experimental: The anti tumor activity of 1bo was determined in vivo in a transgenic mouse breast cancer model. In this model, the mice harbor the rat Her2 gene under the control of the MMTV promoter. These mice therefore spontaneously develop tumors in their mammary tissues. Breast tumors were measured beginning at the time of tumor onset and treatment (once a day for 14 days) with vehicle (20% HPCD) or 1bo (200 mpk/day) began when tumor volumes reached about 200 to 2,300 mm^3. A wide range of tumor volumes was used to ensure that responses were not volume dependent. […] The percent change was calculated from the tumor volume on the last day of treatment relative to the volume on the day of initiation of treatment. […] Thus, on average the breast tumors from 1bo treated mice were 6.6 fold smaller compared to those tumors from mice treated with the vehicle control.

[4] = target: T1, ROCK2 (Homo sapiens (Human), UniProt O75116); conditions: reported by MLSCN, assay ID 644; read-out: ROCK2 enzymatic activity IC50; cited from earlier work
[5] = target: T1, ROCK2; test: FRET-based Z'-Lyte kinase assay, ROCK2; assay type: biochemical;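 note: kinase phosphorylates a coumarin/fluorescein FRET peptide, then a protease cleaves unphosphorylated peptide, read as donor/acceptor emission ratio after 400 nm excitation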
Text: as §1, §2

[6] = target: Aurora-A (Homo sapiens (Human), UniProt O14965); test: preliminary kinase-selectivity profile, Aurora-A; assay type: biochemical
Aurora-A, sequence (O14965 whole entry): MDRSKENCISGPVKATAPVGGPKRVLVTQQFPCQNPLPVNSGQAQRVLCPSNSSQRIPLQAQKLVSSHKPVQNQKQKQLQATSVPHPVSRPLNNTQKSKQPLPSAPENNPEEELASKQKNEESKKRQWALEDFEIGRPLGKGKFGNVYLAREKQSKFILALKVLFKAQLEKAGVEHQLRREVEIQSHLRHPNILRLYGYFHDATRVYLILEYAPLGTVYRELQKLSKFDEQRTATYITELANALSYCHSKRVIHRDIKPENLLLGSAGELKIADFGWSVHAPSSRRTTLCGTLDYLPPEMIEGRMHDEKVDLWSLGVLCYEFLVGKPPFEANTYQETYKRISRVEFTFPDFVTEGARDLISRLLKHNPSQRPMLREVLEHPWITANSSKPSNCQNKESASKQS

ROCK1, sequence (Q13464 whole entry, species assumed): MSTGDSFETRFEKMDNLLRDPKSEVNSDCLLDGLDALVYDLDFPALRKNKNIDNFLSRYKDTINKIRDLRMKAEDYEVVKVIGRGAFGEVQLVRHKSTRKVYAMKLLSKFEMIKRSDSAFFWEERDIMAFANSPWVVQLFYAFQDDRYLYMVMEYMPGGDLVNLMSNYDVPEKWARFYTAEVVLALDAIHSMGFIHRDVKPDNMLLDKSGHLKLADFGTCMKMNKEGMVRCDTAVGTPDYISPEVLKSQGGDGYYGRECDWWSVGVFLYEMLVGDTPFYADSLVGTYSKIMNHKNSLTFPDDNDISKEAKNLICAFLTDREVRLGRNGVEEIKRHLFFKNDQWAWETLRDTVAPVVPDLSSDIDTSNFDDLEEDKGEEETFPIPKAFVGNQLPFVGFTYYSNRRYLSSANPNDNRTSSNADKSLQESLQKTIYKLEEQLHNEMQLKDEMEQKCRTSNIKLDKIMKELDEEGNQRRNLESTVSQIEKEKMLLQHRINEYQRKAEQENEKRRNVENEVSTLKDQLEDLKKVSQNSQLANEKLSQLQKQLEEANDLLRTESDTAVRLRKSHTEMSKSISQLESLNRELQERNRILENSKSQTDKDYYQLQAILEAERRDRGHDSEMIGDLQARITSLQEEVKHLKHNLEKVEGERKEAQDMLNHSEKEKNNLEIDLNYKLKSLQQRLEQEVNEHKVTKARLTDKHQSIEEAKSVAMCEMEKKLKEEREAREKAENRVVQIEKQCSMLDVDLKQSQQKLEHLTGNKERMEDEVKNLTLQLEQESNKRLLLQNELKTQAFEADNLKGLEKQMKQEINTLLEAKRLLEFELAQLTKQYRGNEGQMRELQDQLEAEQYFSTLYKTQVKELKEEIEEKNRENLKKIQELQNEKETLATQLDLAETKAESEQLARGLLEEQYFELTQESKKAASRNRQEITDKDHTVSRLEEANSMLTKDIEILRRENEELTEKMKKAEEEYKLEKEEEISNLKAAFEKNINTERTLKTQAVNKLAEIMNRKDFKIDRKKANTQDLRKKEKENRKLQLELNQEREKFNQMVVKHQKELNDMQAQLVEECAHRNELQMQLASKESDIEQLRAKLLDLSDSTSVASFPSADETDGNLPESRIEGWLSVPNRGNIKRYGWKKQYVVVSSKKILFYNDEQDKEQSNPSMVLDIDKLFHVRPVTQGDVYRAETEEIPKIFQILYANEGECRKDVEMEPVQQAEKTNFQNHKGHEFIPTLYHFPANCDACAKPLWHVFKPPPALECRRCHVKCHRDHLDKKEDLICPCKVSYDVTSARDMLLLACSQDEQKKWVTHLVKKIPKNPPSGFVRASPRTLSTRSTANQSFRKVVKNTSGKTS
T1 sequence (O75116 whole entry, species assumed): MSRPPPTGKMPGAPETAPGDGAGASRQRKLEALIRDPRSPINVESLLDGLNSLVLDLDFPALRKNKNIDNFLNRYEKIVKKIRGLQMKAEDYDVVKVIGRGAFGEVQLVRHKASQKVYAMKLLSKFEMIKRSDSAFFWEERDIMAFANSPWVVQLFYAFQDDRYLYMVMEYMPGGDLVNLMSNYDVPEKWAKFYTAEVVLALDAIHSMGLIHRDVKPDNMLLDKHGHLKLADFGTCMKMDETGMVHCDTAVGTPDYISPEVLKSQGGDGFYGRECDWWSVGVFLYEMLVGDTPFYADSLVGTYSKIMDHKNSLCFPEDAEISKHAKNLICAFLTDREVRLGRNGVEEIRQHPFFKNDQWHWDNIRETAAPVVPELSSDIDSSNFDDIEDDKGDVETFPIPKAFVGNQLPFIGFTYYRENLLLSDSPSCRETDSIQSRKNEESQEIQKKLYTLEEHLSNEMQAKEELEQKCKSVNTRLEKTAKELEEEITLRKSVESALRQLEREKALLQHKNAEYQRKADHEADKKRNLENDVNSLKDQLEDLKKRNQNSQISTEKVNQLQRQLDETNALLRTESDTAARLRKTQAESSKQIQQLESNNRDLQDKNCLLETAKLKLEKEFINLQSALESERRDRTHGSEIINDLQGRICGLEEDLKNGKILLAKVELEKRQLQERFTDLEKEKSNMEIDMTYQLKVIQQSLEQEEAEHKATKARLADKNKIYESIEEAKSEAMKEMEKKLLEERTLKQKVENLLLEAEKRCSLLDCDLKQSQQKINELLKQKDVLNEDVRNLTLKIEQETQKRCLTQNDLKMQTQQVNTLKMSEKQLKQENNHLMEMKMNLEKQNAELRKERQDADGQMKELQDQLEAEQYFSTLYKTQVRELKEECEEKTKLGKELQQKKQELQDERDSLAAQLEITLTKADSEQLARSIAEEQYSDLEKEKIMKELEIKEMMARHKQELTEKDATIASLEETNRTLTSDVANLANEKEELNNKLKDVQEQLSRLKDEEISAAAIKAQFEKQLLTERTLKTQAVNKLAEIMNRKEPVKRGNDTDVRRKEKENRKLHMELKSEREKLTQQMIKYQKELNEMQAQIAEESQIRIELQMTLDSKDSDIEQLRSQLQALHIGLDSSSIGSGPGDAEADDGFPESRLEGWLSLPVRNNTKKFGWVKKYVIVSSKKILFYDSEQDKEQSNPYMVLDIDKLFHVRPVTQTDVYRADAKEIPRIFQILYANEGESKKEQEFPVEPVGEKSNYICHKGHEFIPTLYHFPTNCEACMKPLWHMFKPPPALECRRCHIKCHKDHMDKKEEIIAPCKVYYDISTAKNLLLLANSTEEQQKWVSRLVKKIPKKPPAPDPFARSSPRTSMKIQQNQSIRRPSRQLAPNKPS

| IC50 ([2]; read-out: IC50 ± SD (μM) ROCK1) | IC50 ([5]; read-out: IC50 ± SD (μM) ROCK2) [µM] | SMILES | other results |
| --- | --- | --- | --- |
|  |  | O=C(NCc1cccc(O)c1)Nc1nc(-c2ccncc2)cs1 [Compound 1bo, 1-(3-Hydroxybenzyl)-3-(4-(pyridin-4-yl)thiazol-2-yl)urea] | IC50 [1]: 500 nM; IC50 ([2]; read-out: ROCK1 IC50): 0.008 µM; average percent change in tumor volume [3]: 8.9% |
|  |  | O=C(Nc1nc(-c2ccncc2)cs1)C1COc2ccccc2O1 (stereo not shown) [CID5056270, reference compound] | IC50 [4]: < 3 nM; IC50 ([2]; read-out: ROCK1 IC50): 0.076 µM; IC50 ([5]; read-out: ROCK2 IC50): 0.04 µM; IC50 [6]: > 100 µM |
|  |  | COc1ccc(CNC(=O)Nc2nc(-c3ccncc3)cs2)cc1 [Compound 1am, 1-(4-Methoxybenzyl)-3-(4-(pyridin-4-yl)thiazol-2-yl)urea] | effect on phosphorylation of MYPT1 ([1]; H1299 cells, 10 μM): did not affect; inhibition at 50 µM ([2]; read-out: ROCK1 % inhibition @ 50 μM, 50 μM compound): 9.12% |
| 16.9 ± 2.11 µM | 8.35 ± 2.36 | O=C(Nc1nc(-c2ccncc2)cs1)N1CCN(c2ccncc2)CC1 [Compound 12a, 4-(Pyridin-4-yl)-N-(4-(pyridin-4-yl)thiazol-2-yl)piperazine-1-carboxamide] |  |
| 0.11 ± 0.003 µM | 0.07 ± 0.015 | CN(Cc1ccccc1)C(=O)Nc1nc(-c2ccncc2)cs1 [Compound 1au, 1-Benzyl-1-methyl-3-(4-(pyridin-4-yl)thiazol-2-yl)urea] |  |
| 0.34 ± 0.02 µM | 0.11 ± 0.01 | O=C(NCc1ccccc1Cl)Nc1nc(-c2ccncc2)cs1 [Compound 1ae, 1-(2-Chlorobenzyl)-3-(4-(pyridin-4-yl)thiazol-2-yl)urea] |  |
| 52.2 ± 3.64 µM | 22 ± 7.79 | CC[C@H](NC(=O)Nc1nc(-c2ccncc2)cs1)c1ccccc1 [Compound 1bf, (S)-1-(1-Phenylpropyl)-3-(4-(pyridin-4-yl)thiazol-2-yl)urea] |  |
| 13 ± 1.38 µM | 3.44 ± 0.87 | CC(C)Oc1cccc(CNC(=O)Nc2nc(-c3ccncc3)cs2)c1 [Compound 1bu, 1-(3-Isopropoxybenzyl)-3-(4-(pyridin-4-yl)thiazol-2-yl)urea] |  |
|  |  | O=C(NCc1cccc(O)c1)Nc1nc(-c2ccncc2)cs1 [Compound 1bo-Mes, 1-(3-hydroxybenzyl)-3-(4-(pyridin-4-yl)thiazol-2-yl)urea methanesulfonate] | IC50 ([1]; NCI-H1299): 500 nM; IC50 ([2]; methanesulfonate, read-out: IC50 ± SD (μM) ROCK1): 0.013 µM; IC50 ([2]; read-out: ROCK1 IC50): 0.012 µM |
| 0.56 ± 0.1 µM | 0.1 ± 0.03 | CS(=O)(=O)Nc1cccc(CNC(=O)Nc2nc(-c3ccncc3)cs2)c1 [Compound 1ch, N-(3-β3-(4-(pyridin-4-yl)thiazol-2-yl)ureido)methyl)phenyl)-methanesulfonamide hydrochloride] |  |
| 0.38 ± 0.046 µM | 0.14 ± 0.029 | O=C(NCc1ccc(O)cc1)Nc1nc(-c2ccncc2)cs1 [Compound 1ax, 1-(4-Hydroxybenzyl)-3-(4-(pyridin-4-yl)thiazol-2-yl)urea] |  |
| 0.1 µM and 0.14 µM | 0.06 ± 0.01 | O=C(NCc1cccc(Cl)c1)Nc1nc(-c2ccncc2)cs1 [Compound 1an, 1-(3-Chlorobenzyl)-3-(4-(pyridin-4-yl)thiazol-2-yl)urea] |  |
| 3.7 ± 0.5 µM | 2.1 ± 0.36 | NC(=O)[C@H](NC(=O)Nc1nc(-c2ccncc2)cs1)c1ccccc1 [Compound 1bv, (R)-2-Phenyl-2-(3-(4-(pyridin-4-yl)thiazol-2-yl)ureido)acetamide] |  |
| 0.48 ± 0.037 µM | 0.38 ± 0.107 | O=C(NCCc1ccccc1)Nc1nc(-c2ccncc2)cs1 [Compound 1aw, 1-Phenethyl-3-(4-(pyridin-4-yl)thiazol-2-yl)urea] | fold decrease in ROCK1 activity/potency compared to parent compound 1aa ([2]; comparator 1aa): 3 fold |
| 1.15 ± 0.39 µM | 0.18 ± 0.04 | NC(=O)Nc1cccc(CNC(=O)Nc2nc(-c3ccncc3)cs2)c1 [Compound 1cj, hydrochloride] |  |
| 2.39 ± 0.53 µM | 1.1 ± 0.16 | O=C(NCc1ccc(Cl)cc1)Nc1nc(-c2ccncc2)cs1 [Compound 1ab, 1-(4-Chlorobenzyl)-3-(4-(pyridin-4-yl)thiazol-2-yl)urea] |  |
| 3.21 ± 0.9 µM | 1.83 ± 0.56 | O=C(Nc1nc(-c2ccncc2)cs1)N[C@H]1CCc2ccccc21 [Compound 1cu, (S)-1-(2,3-Dihydro-1H-inden-1-yl)-3-(4-(pyridin-4-yl)thiazol-2-yl)urea] |  |
| 6.25 ± 1.36 µM | 3.35 ± 0.87 | O=C(Nc1nc(-c2ccncc2)cs1)N[C@H]1CCCc2ccccc21 [Compound 1cw] |  |
| 5.16 ± 0.51 µM | 2.05 ± 0.15 | Cc1ccc(CNC(=O)Nc2nc(-c3ccncc3)cs2)cc1 [Compound 1bd, 1-(4-Methylbenzyl)-3-(4-(pyridin-4-yl)thiazol-2-yl)urea] |  |
